In patent US20220401439A1, “INTRANASAL PHARMACEUTICAL COMPOSITIONS OF CGRP INHIBITORS” (Biohaven Pharmaceutical Holding Company Ltd., priority 2019, published 2022):
Marks after values point to notes of the source that are not given here.

Tested on: patients receiving acute treatment of migraine
Assay: Phase 2/3 trial BHV3500-201 (Study 201), efficacy in acute treatment of migraine
Type: in vivo, human
Settings: for Pain relief at 2 hours postdose, Stratified Percentage Difference (Zavegepant-Placebo): stratified by prophylactic migraine medication use
[1] = 5 mg single dose, mITT subjects, Overall
[2] = 5 mg single dose, mITT, Prophylactic migraine medication use: No
[3] = 5 mg single dose, mITT, Prophylactic migraine medication use: Yes
[4] = 10 mg single dose, mITT subjects, Overall
[5] = 10 mg single dose, mITT, Prophylactic migraine medication use: No
[6] = 10 mg single dose, mITT, Prophylactic migraine medication use: Yes
[7] = 10 mg single intranasal dose, p < 0.05
[8] = 20 mg single dose, mITT subjects, Overall
[9] = 20 mg single dose, mITT, Prophylactic migraine medication use: No
[10] = 20 mg single dose, mITT, Prophylactic migraine medication use: Yes
[11] = 20 mg single intranasal dose, p < 0.05
[12] = zavegepant 5 mg vs placebo, mITT, CMH weighting
[13] = zavegepant 5 mg vs placebo, subjects with functional disability at onset, CMH weighting
[14] = zavegepant 5 mg vs placebo, subjects with symptom present at onset, CMH weighting
[15] = zavegepant 5 mg, mITT subjects with functional disability at on-study migraine attack onset
[16] = zavegepant 5 mg, mITT subjects with symptom present at on-study migraine attack onset
[17] = zavegepant 10 mg vs placebo, mITT, CMH weighting

Cc1cc(C[C@@H](NC(=O)N2CCC(c3cc4ccccc4[nH]c3=O)CC2)C(=O)N2CCN(C3CCN(C)CC3)CC2)cc2cn[nH]c12 [Zavegepant, (R)—N-(3-(7-methyl-1H-indazol-5-yl)-1-(4-(1-methylpiperidin-4-yl)piperazin-1-yl)-1-oxopropan-2-yl)-4-(2-oxo-1,2-dihydroquinolin-3-yl)piperidine-1-carboxamide]
Pain Relief at 15 Minutes Post-Dose, (%) of subjects [1]: (14.2) % | Pain Relief at 15 Minutes Post-Dose, n/N [1]: 55/387 | Pain Relief at 15 Minutes Post-Dose, Stratified percentage difference (BHV-3500-Placebo) (5 mg single dose, mITT subjects, Overall, CMH weighting): 4.2% | Pain Relief at 15 Minutes Post-Dose, (%) of subjects [2]: (14.7) % | Pain Relief at 15 Minutes Post-Dose, Percentage difference (BHV-3500-Placebo) [2]: 4.6% | Pain Relief at 15 Minutes Post-Dose, n/N [2]: 49/333 | Pain Relief at 15 Minutes Post-Dose, (%) of subjects [3]: (11.1) % | Pain Relief at 15 Minutes Post-Dose, Percentage difference (BHV-3500-Placebo) [3]: 1.9% | Pain Relief at 15 Minutes Post-Dose, n/N [3]: 8/54 | 2 Hour Endpoint Freedom from MBS (Most Bothersome Symptom) (5 mg single intranasal dose): 39.0% | 2 Hour Endpoint Pain Freedom (5 mg single intranasal dose): 19.6% | Pain Relief at 15 Minutes Post-Dose, (%) of subjects [4]: (18.2) % | Pain Relief at 15 Minutes Post-Dose, n/N [4]: 71/331 | Pain Relief at 15 Minutes Post-Dose, Stratified percentage difference (BHV-3500-Placebo) (10 mg single dose, mITT subjects, Overall, CMH weighting): 8.2% | Pain Relief at 15 Minutes Post-Dose, (%) of subjects [5]: (17.3) % | Pain Relief at 15 Minutes Post-Dose, Percentage difference (BHV-3500-Placebo) [5]: 7.2% | Pain Relief at 15 Minutes Post-Dose, n/N [5]: 59/341 | Pain Relief at 15 Minutes Post-Dose, (%) of subjects [6]: (24.0) % | Pain Relief at 15 Minutes Post-Dose, Percentage difference (BHV-3500-Placebo) [6]: 14.7% | Pain Relief at 15 Minutes Post-Dose, n/N [6]: 12/50 | 2 Hour Endpoint Freedom from MBS (Most Bothersome Symptom) [7]: 41.9%* | 2 Hour Endpoint Pain Freedom [7]: 22.5%* | return to normal function (20 mg): as early as 30 minutes | Pain Relief at 15 Minutes Post-Dose, (%) of subjects [8]: (14.7) % | Pain Relief at 15 Minutes Post-Dose, n/N [8]: 59/402 | Pain Relief at 15 Minutes Post-Dose, Stratified percentage difference (BHV-3500-Placebo) (20 mg single dose, mITT subjects, Overall, CMH weighting): 4.7% | Pain Relief at 15 Minutes Post-Dose, (%) of subjects [9]: (13.3) % | Pain Relief at 15 Minutes Post-Dose, Percentage difference (BHV-3500-Placebo) [9]: 3.2% | Pain Relief at 15 Minutes Post-Dose, n/N [9]: 46/345 | Pain Relief at 15 Minutes Post-Dose, (%) of subjects [10]: (22.3) % | Pain Relief at 15 Minutes Post-Dose, Percentage difference (BHV-3500-Placebo) [10]: 13.5% | Pain Relief at 15 Minutes Post-Dose, n/N [10]: 13/57 | 2 Hour Endpoint Freedom from MBS (Most Bothersome Symptom) [11]: 42.5%* | 2 Hour Endpoint Pain Freedom [11]: 23.1%* | onset of pain relief (5, 10, and 20 mg single dose, stratified CMH tests, mITT subjects): pain relief as early as 15 minutes post-dose | durability of benefits (sustained pain freedom and pain relief 2 to 24 and 2 to 48 hours) (5, 10 and 20 mg (pain relief 2 to 48: 5 and 10 mg), nominal p<0.05): durable and sustained without rescue medication out to 48 hours | pain relief and return to normal function at 2 hours (10 and 20 mg doses): therapeutic benefits | comparison to placebo on co-primary endpoints of pain freedom and freedom from MBS at 2 hours (10 and 20 mg, single dose, p<0.05): statistically superior | comparison to placebo on multiple secondary endpoints demonstrating early activity (nominal p<0.05): superior to placebo | Pain relief at 2 hours postdose, n/N (%) (zavegepant 5 mg intranasal single dose, mITT subjects): (57.9) % | Pain relief at 30 minutes postdose, Stratified Percentage Difference (Zavegepant-Placebo) [12]: 1.9% | Pain relief at 60 minutes postdose, Stratified Percentage Difference (Zavegepant-Placebo) [12]: 5.1% | Rescue medication use within 24 hours postdose, Stratified Percentage Difference (Zavegepant-Placebo) [12]: −2.4% | Sustained pain freedom from 2 to 24 hours postdose, Stratified Percentage Difference (Zavegepant-Placebo) [12]: 5.3% | Sustained pain freedom from 2 to 48 hours postdose, Stratified Percentage Difference (Zavegepant-Placebo) [12]: 5.5% | Sustained pain relief from 2 to 24 hours postdose, Stratified Percentage Difference (Zavegepant-Placebo) [12]: 8.0% | Sustained pain relief from 2 to 48 hours postdose, Stratified Percentage Difference (Zavegepant-Placebo) [12]: 7.4% | Pain relief at 2 hours postdose, Stratified Percentage Difference (Zavegepant-Placebo) [12]: 4.2% | Return to normal function at 30 minutes postdose, Stratified Percentage Difference (Zavegepant-Placebo) [13]: 3.4% | Return to normal function at 60 minutes postdose, Stratified Percentage Difference (Zavegepant-Placebo) [13]: 5.5% | Return to normal function at 2 hours postdose, Stratified Percentage Difference (Zavegepant-Placebo) [13]: 4.3% | Pain relapse from 2 to 48 hours postdose, Stratified Percentage Difference (Zavegepant-Placebo) (zavegepant 5 mg vs placebo, subjects with pain freedom at 2 hours postdose, CMH weighting): −18.9% | Nausea freedom at 2 hours postdose, Stratified Percentage Difference (Zavegepant-Placebo) [14]: 1.8% | Phonophobia freedom at 2 hours postdose, Stratified Percentage Difference (Zavegepant-Placebo) [14]: 10.1% | Photophobia freedom at 2 hours postdose, Stratified Percentage Difference (Zavegepant-Placebo) [14]: 4.6% | Pain relief at 30 minutes postdose, n/N (%) (zavegepant 5 mg, mITT subjects): (26.6) % | Pain relief at 60 minutes postdose, n/N (%) (zavegepant 5 mg, mITT subjects): (47.0) % | Rescue medication use within 24 hours postdose, n/N (%) (zavegepant 5 mg, mITT subjects): (24.9) % | Sustained pain freedom from 2 to 24 hours postdose, n/N (%) (zavegepant 5 mg, mITT subjects): (14.2) % | Sustained pain freedom from 2 to 48 hours postdose, n/N (%) (zavegepant 5 mg, mITT subjects): (12.9) % | Sustained pain relief from 2 to 24 hours postdose, n/N (%) (zavegepant 5 mg, mITT subjects): (43.7) % | Sustained pain relief from 2 to 48 hours postdose, n/N (%) (zavegepant 5 mg, mITT subjects): (40.1) % | Return to normal function at 30 minutes postdose, n/N (%) [15]: (8.8) % | Return to normal function at 60 minutes postdose, n/N (%) [15]: (22.6) % | Return to normal function at 2 hours postdose, n/N (%) [15]: (31.7) % | Pain relapse from 2 to 48 hours postdose, n/N (%) (zavegepant 5 mg, mITT subjects with pain freedom at 2 hours postdose): (31.6) % | Nausea freedom at 2 hours postdose, n/N (%) [16]: (53.2) % | Phonophobia freedom at 2 hours postdose, n/N (%) [16]: (44.2) % | Photophobia freedom at 2 hours postdose, n/N (%) [16]: (35.0) % | Pain relief at 2 hours postdose, n/N (%) (zavegepant 10 mg intranasal single dose, mITT subjects): (60.6) % | Pain relief at 30 minutes postdose, Stratified Percentage Difference (Zavegepant-Placebo) [17]: 5.3% | Pain relief at 60 minutes postdose, Stratified Percentage Difference (Zavegepant-Placebo) [17]: 4.2% | Rescue medication use within 24 hours postdose, Stratified Percentage Difference (Zavegepant-Placebo) [17]: −1.1% | Sustained pain freedom from 2 to 24 hours postdose, Stratified Percentage Difference (Zavegepant-Placebo) [17]: 6.1% | Sustained pain freedom from 2 to 48 hours postdose, Stratified Percentage Difference (Zavegepant-Placebo) [17]: 6.3% | Sustained pain relief from 2 to 24 hours postdose, Stratified Percentage Difference (Zavegepant-Placebo) [17]: 6.8% | Sustained pain relief from 2 to 48 hours postdose, Stratified Percentage Difference (Zavegepant-Placebo) [17]: 7.0% | Pain relief at 2 hours postdose, Stratified Percentage Difference (Zavegepant-Placebo) [17]: 7.1%
